We go through 1 compound from article PMC6385481 (Chemical Science, 2018).

The structures appear in SMILES notation. Entries after “also recorded” stand apart in the source; their conditions may differ.

The target in assay [1] is T1, TAP (core-TAP1mVenus/core-TAP2mCerulean containing crude membranes from Pichia pastoris) (Homo sapiens, UniProt Q03518+Q03519).
T1 sequence (Q03518 167-748 limits assumed): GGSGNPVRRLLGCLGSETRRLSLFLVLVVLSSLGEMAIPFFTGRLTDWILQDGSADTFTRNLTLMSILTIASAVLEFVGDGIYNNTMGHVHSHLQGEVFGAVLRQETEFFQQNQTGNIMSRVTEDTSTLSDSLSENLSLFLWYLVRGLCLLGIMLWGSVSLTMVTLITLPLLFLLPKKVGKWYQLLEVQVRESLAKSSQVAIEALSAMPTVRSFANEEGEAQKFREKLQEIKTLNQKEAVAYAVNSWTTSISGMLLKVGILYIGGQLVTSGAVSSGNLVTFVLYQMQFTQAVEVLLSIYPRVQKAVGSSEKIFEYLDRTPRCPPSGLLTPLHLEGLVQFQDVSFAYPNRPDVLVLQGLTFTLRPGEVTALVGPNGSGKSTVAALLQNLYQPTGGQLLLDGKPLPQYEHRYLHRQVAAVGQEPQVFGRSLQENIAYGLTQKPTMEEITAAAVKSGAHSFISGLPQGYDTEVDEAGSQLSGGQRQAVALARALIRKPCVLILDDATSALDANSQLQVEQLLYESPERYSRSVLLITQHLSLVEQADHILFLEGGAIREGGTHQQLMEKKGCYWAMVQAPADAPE
T1 sequence (Q03519 125-686 limits assumed): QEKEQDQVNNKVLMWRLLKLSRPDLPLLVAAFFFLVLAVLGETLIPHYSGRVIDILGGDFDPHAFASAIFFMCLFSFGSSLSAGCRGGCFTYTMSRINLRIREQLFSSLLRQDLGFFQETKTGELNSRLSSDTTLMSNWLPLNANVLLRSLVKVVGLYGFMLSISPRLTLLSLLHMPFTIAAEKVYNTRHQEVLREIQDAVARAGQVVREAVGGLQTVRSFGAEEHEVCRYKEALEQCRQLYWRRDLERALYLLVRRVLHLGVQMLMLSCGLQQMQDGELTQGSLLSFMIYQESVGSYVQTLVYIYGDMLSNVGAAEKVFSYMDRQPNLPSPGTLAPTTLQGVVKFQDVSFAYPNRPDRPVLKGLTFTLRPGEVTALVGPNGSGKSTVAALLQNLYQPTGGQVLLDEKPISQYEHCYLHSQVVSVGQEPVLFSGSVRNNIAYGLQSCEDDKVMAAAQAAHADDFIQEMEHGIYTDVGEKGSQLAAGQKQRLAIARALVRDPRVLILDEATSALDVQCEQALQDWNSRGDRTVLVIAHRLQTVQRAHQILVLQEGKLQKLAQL
The experiment in a line: Filter-based peptide competition assay. The format is binding. Conditions: 100 μM inhibitor; illumination at 365 nm.

For assay [2], the target named is TAP (Homo sapiens, UniProt Q03518+Q03519). The experiment in a line: TAP-dependent peptide transport of NST-F in Raji microsomes. It counts as biochemical. Conditions: read-out: inhibition of TAP-dependent peptide translocation before illumination.
TAP, sequence (Q03518 whole entry): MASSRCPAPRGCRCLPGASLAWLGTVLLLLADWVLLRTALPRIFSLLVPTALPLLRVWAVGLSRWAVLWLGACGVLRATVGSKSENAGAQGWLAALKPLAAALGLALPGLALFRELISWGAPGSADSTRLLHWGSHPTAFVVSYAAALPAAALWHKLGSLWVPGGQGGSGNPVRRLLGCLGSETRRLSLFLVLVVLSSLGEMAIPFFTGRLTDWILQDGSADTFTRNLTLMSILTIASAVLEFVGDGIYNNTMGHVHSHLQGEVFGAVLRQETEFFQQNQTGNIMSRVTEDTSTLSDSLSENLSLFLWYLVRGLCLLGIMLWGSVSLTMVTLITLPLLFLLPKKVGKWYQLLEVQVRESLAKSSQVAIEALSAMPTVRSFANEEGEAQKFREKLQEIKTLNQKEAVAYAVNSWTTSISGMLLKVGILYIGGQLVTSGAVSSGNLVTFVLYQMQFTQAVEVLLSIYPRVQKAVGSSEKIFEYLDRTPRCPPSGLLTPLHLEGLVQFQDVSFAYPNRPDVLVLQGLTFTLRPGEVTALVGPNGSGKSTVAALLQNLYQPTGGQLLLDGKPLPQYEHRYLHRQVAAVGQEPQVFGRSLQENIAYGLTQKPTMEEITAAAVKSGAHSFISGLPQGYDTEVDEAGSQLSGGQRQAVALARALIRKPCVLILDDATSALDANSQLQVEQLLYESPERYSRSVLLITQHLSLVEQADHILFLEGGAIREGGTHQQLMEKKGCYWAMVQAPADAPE
TAP, sequence (Q03519 whole entry): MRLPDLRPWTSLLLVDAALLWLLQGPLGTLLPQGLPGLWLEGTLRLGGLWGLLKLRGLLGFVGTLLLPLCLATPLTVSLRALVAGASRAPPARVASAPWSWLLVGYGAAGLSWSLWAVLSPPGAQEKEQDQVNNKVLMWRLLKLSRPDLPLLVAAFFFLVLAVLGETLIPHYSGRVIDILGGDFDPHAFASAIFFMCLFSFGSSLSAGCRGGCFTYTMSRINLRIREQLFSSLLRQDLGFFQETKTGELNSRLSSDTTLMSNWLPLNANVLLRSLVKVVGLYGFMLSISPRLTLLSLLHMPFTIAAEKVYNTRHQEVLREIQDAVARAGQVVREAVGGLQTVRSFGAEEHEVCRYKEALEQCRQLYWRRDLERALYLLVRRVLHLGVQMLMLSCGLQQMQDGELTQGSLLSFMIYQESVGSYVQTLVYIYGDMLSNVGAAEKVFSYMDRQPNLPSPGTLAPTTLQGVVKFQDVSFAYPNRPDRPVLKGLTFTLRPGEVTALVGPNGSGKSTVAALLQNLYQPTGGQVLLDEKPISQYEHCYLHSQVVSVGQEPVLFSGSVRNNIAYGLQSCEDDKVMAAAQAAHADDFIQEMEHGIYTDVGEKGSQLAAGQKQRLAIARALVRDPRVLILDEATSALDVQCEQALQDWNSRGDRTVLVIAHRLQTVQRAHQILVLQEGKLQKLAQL
TAP, sequence (O15533 21-448 partner): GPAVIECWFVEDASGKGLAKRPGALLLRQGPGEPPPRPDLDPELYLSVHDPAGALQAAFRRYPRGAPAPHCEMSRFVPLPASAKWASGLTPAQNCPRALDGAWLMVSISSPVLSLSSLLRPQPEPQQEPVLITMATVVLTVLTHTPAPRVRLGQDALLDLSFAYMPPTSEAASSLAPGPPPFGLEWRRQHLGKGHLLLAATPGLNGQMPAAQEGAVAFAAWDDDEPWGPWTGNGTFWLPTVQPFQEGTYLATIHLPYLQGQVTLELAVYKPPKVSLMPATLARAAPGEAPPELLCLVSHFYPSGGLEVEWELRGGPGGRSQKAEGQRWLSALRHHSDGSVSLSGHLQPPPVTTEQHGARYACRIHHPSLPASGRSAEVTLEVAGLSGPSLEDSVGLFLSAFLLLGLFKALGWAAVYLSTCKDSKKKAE
TAP, sequence (P30101 25-505 partner): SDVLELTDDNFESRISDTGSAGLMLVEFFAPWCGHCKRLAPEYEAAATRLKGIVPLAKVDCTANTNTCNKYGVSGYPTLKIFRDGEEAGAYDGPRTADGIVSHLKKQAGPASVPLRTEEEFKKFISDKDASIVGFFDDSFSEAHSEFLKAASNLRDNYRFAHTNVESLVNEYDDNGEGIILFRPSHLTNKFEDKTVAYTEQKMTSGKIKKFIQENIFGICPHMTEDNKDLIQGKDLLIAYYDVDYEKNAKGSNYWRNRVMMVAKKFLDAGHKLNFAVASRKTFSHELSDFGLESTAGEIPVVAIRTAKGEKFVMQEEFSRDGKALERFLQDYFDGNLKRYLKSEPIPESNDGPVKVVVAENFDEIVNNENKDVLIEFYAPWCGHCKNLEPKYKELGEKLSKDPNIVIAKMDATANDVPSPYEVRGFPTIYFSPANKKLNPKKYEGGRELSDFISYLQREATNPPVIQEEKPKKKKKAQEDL

As a reminder, the inhibition is the relative decrease from the control value, in per cent. Take `CC[C@H](C)[C@H](NC(=O)[C@H](CCC(=O)O)NC(=O)[C@H](CC(=O)O)NC(=O)[C@H](CCCNC(=N)N)NC(=O)[C@@H](NC(=O)[C@H](CC(=O)O)NC(=O)[C@H](C)NC(=O)[C@H](Cc1ccc(O)cc1)NC(=O)[C@@H](NC(=O)[C@H](CCCNC(=N)N)NC(=O)[C@@H]1CCCN1C(=O)CNC(=O)[C@@H](NC(=O)[C@H](CCCNC(=N)N)NC(=O)[C@H](CCSC)NC(=O)[C@H](CC(N)=O)NC(=O)[C@H](CC(=O)O)NC(=O)[C@H](CC(C)C)NC(=O)[C@H](Cc1ccccc1)NC(=O)[C@@H](NC(=O)[C@H](CC(=O)O)NC(=O)[C@H](C)NC(=O)[C@H](CCSC)NC(=O)[C@H](CCC(=O)O)NC(=O)[C@H](CC(C)C)NC(=O)[C@H](C)NC(=O)[C@H](Cc1c[nH]c2ccccc12)NC(=O)[C@@H](N)CO)[C@@H](C)O)C(C)C)[C@@H](C)O)C(C)C)C(=O)N[C@@H](CC(N)=O)C(=O)N[C@@H](CCCCN)C(=O)N[C@@H](CCCNC(=N)N)C(=O)NCC(=O)N[C@@H](CCCNC(=N)N)C(=O)O` [ICP47_2–34]: the “effect of illumination on TAP peptide binding blocked by inhibitor” value in assay [1] was “not affected by illumination; also recorded: did not recover the TAP activity”. In addition, the inhibition at 5 µM in assay [2] is over 85%.
